Assay results as given in publication PMC8016166, “Identification of a Potent and Selective 5-HT1A Receptor Agonist with In Vitro and In Vivo Antinociceptive Activity” (ACS Chemical Neuroscience, 2020).

Legend:
human 5-HT6 = target: T1, human 5-HT6 (Homo sapiens, UniProt P50406); experiment: Radioligand binding at 5-HT6 in transfected HEK293 cells; details: for selectivity 5-HT6/5-HT1A: Antilog [pKi (5-HT1AR) – pKi (5-HT6R)]; for Ki: transfected HEK293 cells, [3H]-LSD, read-out: 5-HT6 pKi ± SEM (converted)
T1 construct: expressed in transfected cells

human 5-HT1AR = target: T2, human 5-HT1AR (Homo sapiens, UniProt P08908); experiment: Radioligand binding at 5-HT1A in transfected HEK293 cells; details: for 5-HT1A pKi ± SEM / Ki: HEK293 cells transfected with human 5-HT1AR, [3H]-8-OH-DPAT, at least two independent experiments; for Ki: read-out: 5-HT1A pKi ± SEM (converted)
T2 construct: expressed in transfected cells
T2 sequence (P08908 1-422): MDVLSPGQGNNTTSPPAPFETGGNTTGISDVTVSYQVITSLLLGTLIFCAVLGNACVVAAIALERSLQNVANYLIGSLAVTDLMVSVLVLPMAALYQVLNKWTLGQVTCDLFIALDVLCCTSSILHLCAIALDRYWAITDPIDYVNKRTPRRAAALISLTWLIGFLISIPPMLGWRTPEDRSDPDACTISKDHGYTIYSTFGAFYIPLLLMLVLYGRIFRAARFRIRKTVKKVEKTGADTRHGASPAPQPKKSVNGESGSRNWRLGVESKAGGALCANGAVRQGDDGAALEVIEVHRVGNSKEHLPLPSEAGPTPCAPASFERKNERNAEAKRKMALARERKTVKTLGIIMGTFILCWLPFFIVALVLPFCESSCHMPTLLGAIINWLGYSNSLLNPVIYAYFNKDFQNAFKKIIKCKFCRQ
Method: HEK293 cells with stable expression of human 5-HT1A, 5-HT6, and 5-HT7b (prepared with the use of Lipofectamine 2000) were grown in Dulbecco’s Modified Eagle Medium (DMEM) containing 10% dialyzed fetal bovine serum (FBS) and 500 μg/mL G418 sulfate. Liver hepatocellular carcinoma Hep-G2 cells were cultured in DMEM enriched by 10% FBS, 2 mM L-glutamine, 100 IU/mL penicillin, and 50 μg/mL streptomycin (all from Sigma-Aldrich Corporation, a division of Merck KGaA, Darmstadt, Germany). Cell lines were maintained at 37 °C in a humidified atmosphere with 5% CO2. For membrane preparation, the cells were subcultured in 150 cm^2 flasks, grown to 90% confluence, washed twice with prewarmed to 37 °C phosphate buffered saline (PBS), and pelleted by centrifugation (200g) in PBS containing 0.1 mM EDTA and 1 mM dithiothreitol. Prior to membrane preparation, pellets were stored at −80 °C.
The cell pellets were thawed and homogenized in 10 volumes of assay buffer using an Ultra Turrax tissue homogenizer and centrifuged twice at 35 000g for 15 min at 4 °C, with incubation for 15 min at 37 °C in between. The composition of the assay buffers was as follows: for 5-HT1AR: 50 mM Tris HCl, 0.1 mM EDTA, 4 mM MgCl2, 10 μM pargyline, and 0.1% ascorbate; for 5-HT6R: 50 mM Tris HCl, 0.5 mM EDTA, and 4 mM MgCl2; for 5-HT7bR: 50 mM Tris HCl, 4 mM MgCl2, 10 μM pargyline, and 0.1% ascorbate. All the assays were incubated in a total volume of 200 μL in 96-well microtiter plates for 1 h at 37 °C, except 5-HT1AR which was incubated at room temperature. The process of equilibration was terminated by rapid filtration through Unifilter plates with a 96-well cell harvester and radioactivity retained on the filters was quantified on a Microbeta plate reader (PerkinElmer, USA). […] Nonspecific binding was defined with 10 μM of 5-HT in 5-HT1AR and 5-HT7R binding experiments, where 10 μM of methiothepine was used in 5-HT6R assays. Each compound was tested in triplicate at 7 concentrations (10^–10–10^–4 M). The results were analyzed with one-way ANOVA followed by the Bonferroni’s posthoc test. The inhibition constants (pKi) were calculated from the Cheng-Prusoff equation.[46] The results were expressed as means of at least two separate experiments.

5-HT2AR = target: T3, 5-HT2AR (Rattus norvegicus, UniProt P14842); experiment: Radioligand binding at 5-HT2A on rat frontal cortex membranes; details: for selectivity 5-HT2A/5-HT1A: Antilog [pKi (5-HT1AR) – pKi (5-HT2AR)]; for Ki: read-out: 5-HT2A pKi ± SEM (converted)
T3 construct: from tissue; host or cells: frontal cortex of male Sprague-Dawley rats
Method: Male Sprague–Dawley rats were decapitated and their brains removed and placed on ice. The hippocampi (for the functional 5-HT1A receptor assay) or frontal cortexes (for the competitive 5-HT2A and 5-HT2C receptor assays) were dissected and homogenized with a glass homogenizer in 30 vol. ice-cold TED buffer (50 mMTris-HCl, 1 mM EDTA, 1 mM dithiotheritol, pH 7.4). Next, the homogenate was centrifuged at 21 000g for 30 min at 4 °C. The pellet was suspended in 30 vol TED buffer (pH 7.4) and incubated in a water bath for 10 min at 37 °C to remove endogenous ligands. The suspension was centrifuged again at 21 000g for 30 min at 4 °C. The pellet was resuspended in 30 vol TED buffer (pH 7.4) and the centrifugation step was repeated. The final pellet was suspended in 10 vol 50 mM Tris-HCl (pH 7.4) and stored at −80 °C until use.[47]
The 5-HT2A assay was performed according to a previously described protocol with some modifications.[48] […] Nonspecific binding was determined in the presence of 10 μM mianserin. For the 5-HT2C assay, the frontal cortex homogenates (250 μg protein/mL) were incubated in triplicate with 1 nM [^3H]mesulergine for 60 min at 36 °C in a 50 mM Tris-HCl (pH 7.4) buffer containing 0.1% ascorbate, 10 mM MgCl2, 10 μM pargyline, 100 nM spiperone, and increasing concentrations (10^–10–10^–5 M) of the compound tested. After incubation, the reaction mixture was deposited onto UniFilter-96 GF/B plates, with the aid of a FilterMate-96 Harvester. The filter plates were presoaked with 0.4% PEI for 1 h. Next, each filter well was washed with 1.75 mL of 50 mM Tris-HCl (pH 7.4) and left to dry on a heating block set to 50 °C for 2 h. Then, 45 μL of Microscint-20 scintillation fluid was added to each filter well and left to equilibrate overnight. The filter-bound radioactivity was counted in a MicroBeta^2 Microplate Counter. Curves were fitted with a one-site sigmoidal dose–response equation and pKi for each compound was calculated with the Cheng-Pursoff equation. Results were analyzed with one-way ANOVA followed by the Bonferroni’s posthoc test. The results are expressed as means ± SEM of three independent experiments.

T3 sequence (P14842 whole entry): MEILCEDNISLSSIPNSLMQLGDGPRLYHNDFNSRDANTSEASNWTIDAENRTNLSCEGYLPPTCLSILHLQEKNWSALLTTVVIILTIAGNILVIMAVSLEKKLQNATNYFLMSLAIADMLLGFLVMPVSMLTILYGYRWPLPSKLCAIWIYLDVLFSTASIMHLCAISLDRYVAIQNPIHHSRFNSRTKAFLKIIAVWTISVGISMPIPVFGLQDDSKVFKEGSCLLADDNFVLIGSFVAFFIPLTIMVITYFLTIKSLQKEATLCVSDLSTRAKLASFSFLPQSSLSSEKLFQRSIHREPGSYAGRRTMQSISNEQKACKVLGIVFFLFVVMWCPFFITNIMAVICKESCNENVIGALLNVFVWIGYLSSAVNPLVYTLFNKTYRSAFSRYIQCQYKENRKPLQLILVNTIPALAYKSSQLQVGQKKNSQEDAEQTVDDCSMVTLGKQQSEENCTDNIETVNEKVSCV
T1 sequence (P50406 whole entry): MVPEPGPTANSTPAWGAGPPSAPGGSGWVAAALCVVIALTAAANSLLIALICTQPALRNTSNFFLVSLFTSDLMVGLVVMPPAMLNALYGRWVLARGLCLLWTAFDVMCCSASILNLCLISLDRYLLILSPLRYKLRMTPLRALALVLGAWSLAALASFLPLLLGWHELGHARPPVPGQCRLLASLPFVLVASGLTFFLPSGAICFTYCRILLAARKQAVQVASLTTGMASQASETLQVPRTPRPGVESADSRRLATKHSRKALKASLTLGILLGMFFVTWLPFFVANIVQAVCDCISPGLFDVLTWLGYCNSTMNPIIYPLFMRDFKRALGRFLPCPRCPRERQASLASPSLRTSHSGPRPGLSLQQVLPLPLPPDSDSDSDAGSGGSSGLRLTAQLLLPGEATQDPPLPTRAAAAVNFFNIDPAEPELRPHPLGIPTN

Row | SMILES | selectivity 5-HT6/5-HT1A (human 5-HT6) | Ki (human 5-HT6) | 5-HT1A pKi ± SEM (human 5-HT1AR) | selectivity 5-HT2A/5-HT1A (5-HT2AR) | Ki (5-HT2AR) | binding affinity at 5-HT1AR, (S)-2 vs (R)-2 (human 5-HT1AR) | Ki (human 5-HT1AR)
1 | c1ccc(C2(c3ccccc3)OC[C@H](CNCCOc3ccccc3-c3ccncc3)O2)cc1 [(S)-1, N-[(2,2-Diphenyl-1,3-dioxolan-4-yl)methyl]-2-[2-(pyridin-4-yl)phenoxy]ethan-1-ammonium hydrogenoxalate] | 347 | 3.24 µM | 8.03 ± 0.10 | 85 | 0.794 µM | – | –
2 | Cn1cncc1-c1ccccc1OCCNC[C@H]1COC(c2ccccc2)(c2ccccc2)O1 [(S)-2, N-((2,2-Diphenyl-1,3-dioxolan-4-yl)methyl)-2-(2-(1-methyl-1H-imidazol-5-yl)phenoxy)ethan-1-ammonium hydrogenoxalate] | 1349 | 5.5 µM | – | 245 | 1 µM | 3 fold | 0.00407 µM
3 | c1ccc(C2(c3ccccc3)OC[C@@H](CNCCOc3ccccc3-c3ccncc3)O2)cc1 [(R)-1, N-[(2,2-Diphenyl-1,3-dioxolan-4-yl)methyl]-2-[2-(pyridin-4-yl)phenoxy]ethan-1-ammonium hydrogenoxalate] | 955 | 4.27 µM | 8.35 ± 0.9 | 355 | 1.58 µM | – | –
4 | c1ccc(C2(c3ccccc3)OCC(CNCCOc3ccccc3-c3ccncc3)O2)cc1 (racemic) [rac-1, N-[(2,2-diphenyl-1,3-dioxolan-4-yl)methyl]-2-[2-(pyridin-4-yl)phenoxy]ethan-1-ammonium hydrogenoxalate] | 832 | 7.59 µM | – | 123 | 1.12 µM | – | 0.00912 µM
5 | Cn1cncc1-c1ccccc1OCCNC[C@@H]1COC(c2ccccc2)(c2ccccc2)O1 [(R)-2, N-((2,2-Diphenyl-1,3-dioxolan-4-yl)methyl)-2-(2-(1-methyl-1H-imidazol-5-yl)phenoxy)ethan-1-ammonium hydrogenoxalate] | 417 | 5.01 µM | – | 74 | 0.891 µM | – | 0.012 µM
6 | Cn1cncc1-c1ccccc1OCCNCC1COC(c2ccccc2)(c2ccccc2)O1 (racemic) [rac-2, N-((2,2-diphenyl-1,3-dioxolan-4-yl)methyl)-2-(2-(1-methyl-1H-imidazol-5-yl)phenoxy)ethan-1-ammonium hydrogenoxalate] | 676 | 5.01 µM | – | 56 | 0.417 µM | – | 0.00741 µM
